Patent US20090163476A1, “N-Phenyl Benzamide Derivatives as Sirtuin Modulators” (Sirtris Pharmaceuticals, Inc., priority 2005, published 2009)

Target: T1, SIRT1 (Homo sapiens, UniProt Q96EB6)
T1 sequence (Q96EB6 1-747): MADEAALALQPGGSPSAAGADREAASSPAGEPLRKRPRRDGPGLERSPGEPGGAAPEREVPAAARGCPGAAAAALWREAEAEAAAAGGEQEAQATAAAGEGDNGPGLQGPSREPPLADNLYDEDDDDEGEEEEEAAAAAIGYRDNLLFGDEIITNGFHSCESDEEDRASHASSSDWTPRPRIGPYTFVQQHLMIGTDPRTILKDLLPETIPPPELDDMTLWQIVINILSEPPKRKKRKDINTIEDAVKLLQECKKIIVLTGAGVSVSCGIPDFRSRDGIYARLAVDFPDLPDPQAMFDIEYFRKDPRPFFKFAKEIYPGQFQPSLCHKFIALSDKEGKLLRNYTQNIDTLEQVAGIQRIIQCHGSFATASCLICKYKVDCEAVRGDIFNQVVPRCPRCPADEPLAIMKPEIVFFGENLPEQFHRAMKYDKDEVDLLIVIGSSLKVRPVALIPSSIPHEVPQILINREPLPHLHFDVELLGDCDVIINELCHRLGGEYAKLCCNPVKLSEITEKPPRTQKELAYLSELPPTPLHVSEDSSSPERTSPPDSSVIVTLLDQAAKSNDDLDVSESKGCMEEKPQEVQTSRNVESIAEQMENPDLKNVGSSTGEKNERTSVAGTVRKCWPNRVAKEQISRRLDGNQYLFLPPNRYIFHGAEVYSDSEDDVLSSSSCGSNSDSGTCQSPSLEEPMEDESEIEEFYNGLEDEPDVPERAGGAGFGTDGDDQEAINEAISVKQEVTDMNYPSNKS
Test: Mass spectrometry based assay of SIRT1 activity
Format: biochemical
Design: key to FOLD ACTIVATION MS: A: Fold activation >250%; B: Fold Activation <250%; C: no fold activation
Conditions: for EC50: activation of SIRT1, read-out: ED50 MS
Description: The mass spectrometry based assay utilizes a peptide having 20 amino acid residues as follows: […] The sequence of the peptide substrate is based on p53 with several modifications. […] Test compounds may be added to the reaction as described above. […] After the 25 minute incubation with SIRT1, 10 μL of 10% formic acid is added to stop the reaction. Reactions are sealed and frozen for later mass spec analysis. Determination of the mass of the substrate peptide allows for precise determination of the degree of acetylation (i.e. starting material) as compared to deacetylated peptide (product). […] This timepoint is the same as that used for test compounds and, within the linear range, the endpoint represents a change in velocity. For each of the above assays, SIRT1 protein was expressed and purified as follows. The SirT1 gene was cloned into a T7-promoter containing vector and transformed into BL21(DE3). The protein was expressed by induction with 1 mM IPTG as an N-terminal His-tag fusion protein at 18° C. overnight and harvested at 30,000×g. […] The protein was purified over a Ni-NTA column (Amersham) and fractions containing pure protein were pooled, concentrated and run over a sizing column (Sephadex S200 26/60 global). The peak containing soluble protein was collected and run on an Ion-exchange column (MonoQ). […] This protein was concentrated and dialyzed against dialysis buffer (20 mM Tris-HCl, 2 mM TCEP) overnight. The protein was aliquoted and frozen at −80° C. until further use.

SMILES	EC50 [µM]	FOLD ACTIVATION MS
COc1ccc(C(=O)Nc2cccc(-c3nc4ncccc4o3)c2)cc1 [Compound 54]	> 150	
O=C(Nc1cccc(-c2nc3ncccc3o2)c1)c1ccccc1N1CCOCC1 [Compound 109]	< 50	B (Fold Activation <250%)
COc1ccc(C(=O)Nc2cccc(-c3nc4cc(C)ccc4[nH]3)c2)cc1OC [Compound 117]	< 50	A (Fold activation >250%)
COc1cc(C(=O)Nc2cccc(-c3cn4ccsc4n3)c2)cc(OC)c1OC [Compound 118]	< 50	A (Fold activation >250%)
COc1cccc(OC)c1C(=O)Nc1cccc(-c2nc3ccccc3o2)c1 [Compound 119]	< 50	B (Fold Activation <250%)
COc1ccc(C(=O)Nc2cccc(-c3nc4cc(C(C)C)ccc4o3)c2)cc1OC [Compound 122]	101 to 150	
COc1cc(C(=O)Nc2cccc(-c3nc4ccccc4c(=O)o3)c2)cc(OC)c1OC [Compound 125]	51 to 100	B (Fold Activation <250%)
COc1cccc(OC)c1C(=O)Nc1cccc(-c2nc3ccccc3[nH]2)c1 [Compound 126]	< 50	B (Fold Activation <250%)
COc1cc(C(=O)Nc2cccc(-c3nc4ccc(C)cc4o3)c2)cc(OC)c1OC [Compound 127]	< 50	A (Fold activation >250%)
COc1ccc(C(=O)Nc2cccc(-c3cn4ccc(C)cc4n3)c2)c(OC)c1 [Compound 128]	< 50	B (Fold Activation <250%)
COc1cc(C(=O)Nc2cccc(-c3cn4ccc(C)cc4n3)c2)cc(OC)c1OC [Compound 129]	< 50	A (Fold activation >250%)
COc1ccc(C(=O)Nc2cccc(-c3cn4ccc(C)cc4n3)c2)cc1 [Compound 130]	< 50	B (Fold Activation <250%)
COc1cc(C(=O)Nc2cccc(-c3cn4cccc(C)c4n3)c2)cc(OC)c1OC [Compound 131]	< 50	A (Fold activation >250%)
COc1ccccc1C(=O)Nc1cccc(-c2cn3ccsc3n2)c1 [Compound 132]	< 50	A (Fold activation >250%)
COC(=O)c1cc(NC(=O)c2cc(OC)c(OC)c(OC)c2)cc(-c2nc3ccncc3s2)c1 [Compound 133, methyl 3-(thiazolo[5,4-c]pyridin-2-yl)-5-(3,4,5-trimethoxybenzamido)benzoate]	< 50	B (Fold Activation <250%)
COc1cc(C(=O)Nc2cc(C(=O)O)cc(-c3nc4ccncc4s3)c2)cc(OC)c1OC [Compound 134, 3-(thiazolo[5,4-c]pyridin-2-yl)-5-(3,4,5-trimethoxybenzamido)benzoic acid]	< 50	B (Fold Activation <250%)
COc1ccc(C(=O)Nc2cc(C(=O)O)cc(-c3nc4ncccc4o3)c2)cc1OC [Compound 137]	> 150	
CN(C)c1cccc(C(=O)Nc2cc(C(=O)N3CCNCC3)cc(-c3nc4ncccc4o3)c2)c1 [Compound 138]	< 50	B (Fold Activation <250%)
COc1ccc(C(=O)Nc2cc(C(=O)N3CCNCC3)cc(-c3nc4ncccc4o3)c2)c(OC)c1 [Compound 139]	< 50	B (Fold Activation <250%)
COc1ccc(C(=O)Nc2cc(C(=O)N3CCNCC3)cc(-c3nc4ncccc4o3)c2)cc1OC [Compound 164]	< 50	B (Fold Activation <250%)

Now from value to compound:

EC50 [µM]	FOLD ACTIVATION MS	SMILES
> 150		O=C(Nc1cccc(-c2nc3ncccc3o2)c1)c1cccc(OC(F)(F)F)c1 [Compound 50]
101 to 150		COc1ccc(C(=O)Nc2cccc(-c3nc4ncccc4o3)c2)cc1Cl [Compound 110]
< 50	B (Fold Activation <250%)	CN(C)c1cccc(C(=O)Nc2cccc(-c3nc4cccnc4o3)c2)c1 [Compound 111]
< 50	B (Fold Activation <250%)	COc1ccc(C(=O)Nc2cccc(-c3nc4cccnc4o3)c2)cc1OC [Compound 112]
< 50	B (Fold Activation <250%)	CN(C)c1cccc(C(=O)Nc2cccc(-c3nc4ccncc4s3)c2)c1 [Compound 113]
< 50	A (Fold activation >250%)	COc1ccc(C(=O)Nc2cccc(-c3nc4ccncc4s3)c2)cc1OC [Compound 114]
< 50	A (Fold activation >250%)	COc1cc(C(=O)Nc2cccc(-c3nc4ccncc4s3)c2)cc(OC)c1OC [Compound 115]
101 to 150		COc1ccc(C(=O)Nc2cccc(-c3cnc4ccccc4n3)c2)cc1OC [Compound 116]
> 150	C	COc1cccc(C(=O)Nc2cccc(-c3nc4cc(Cl)cc(Cl)c4o3)c2)c1 [Compound 121]
< 50	B (Fold Activation <250%)	COc1ccc(C(=O)Nc2cccc(-c3nc4ccccc4s3)c2)c(OC)c1 [Compound 124]
< 50	B (Fold Activation <250%)	COc1cc(C(=O)Nc2cc(CO)cc(-c3nc4ccncc4s3)c2)cc(OC)c1OC [Compound 135]
